Laboratory results taken from patent publication US10457654B2 (GENENTECH, INC., priority 2017, dated 2019).
Counter-ions that a name gives are not always drawn.

How the values were obtained:
hNav1.7 [1] = target: T1, hNav1.7 (Homo sapiens (Human), UniProt Q15858); assay: Tritiated compound binding to membranes from cells expressing hNav1.7 and the β1 subunit, modified protocol (LBA, Ex. 243B); conditions: 300 pM [3H]compound, room temperature, read-out: Nav1.7 LBA (Ex. 243B) IC50
Target sequence in this assay (Q15858 whole entry, looked up): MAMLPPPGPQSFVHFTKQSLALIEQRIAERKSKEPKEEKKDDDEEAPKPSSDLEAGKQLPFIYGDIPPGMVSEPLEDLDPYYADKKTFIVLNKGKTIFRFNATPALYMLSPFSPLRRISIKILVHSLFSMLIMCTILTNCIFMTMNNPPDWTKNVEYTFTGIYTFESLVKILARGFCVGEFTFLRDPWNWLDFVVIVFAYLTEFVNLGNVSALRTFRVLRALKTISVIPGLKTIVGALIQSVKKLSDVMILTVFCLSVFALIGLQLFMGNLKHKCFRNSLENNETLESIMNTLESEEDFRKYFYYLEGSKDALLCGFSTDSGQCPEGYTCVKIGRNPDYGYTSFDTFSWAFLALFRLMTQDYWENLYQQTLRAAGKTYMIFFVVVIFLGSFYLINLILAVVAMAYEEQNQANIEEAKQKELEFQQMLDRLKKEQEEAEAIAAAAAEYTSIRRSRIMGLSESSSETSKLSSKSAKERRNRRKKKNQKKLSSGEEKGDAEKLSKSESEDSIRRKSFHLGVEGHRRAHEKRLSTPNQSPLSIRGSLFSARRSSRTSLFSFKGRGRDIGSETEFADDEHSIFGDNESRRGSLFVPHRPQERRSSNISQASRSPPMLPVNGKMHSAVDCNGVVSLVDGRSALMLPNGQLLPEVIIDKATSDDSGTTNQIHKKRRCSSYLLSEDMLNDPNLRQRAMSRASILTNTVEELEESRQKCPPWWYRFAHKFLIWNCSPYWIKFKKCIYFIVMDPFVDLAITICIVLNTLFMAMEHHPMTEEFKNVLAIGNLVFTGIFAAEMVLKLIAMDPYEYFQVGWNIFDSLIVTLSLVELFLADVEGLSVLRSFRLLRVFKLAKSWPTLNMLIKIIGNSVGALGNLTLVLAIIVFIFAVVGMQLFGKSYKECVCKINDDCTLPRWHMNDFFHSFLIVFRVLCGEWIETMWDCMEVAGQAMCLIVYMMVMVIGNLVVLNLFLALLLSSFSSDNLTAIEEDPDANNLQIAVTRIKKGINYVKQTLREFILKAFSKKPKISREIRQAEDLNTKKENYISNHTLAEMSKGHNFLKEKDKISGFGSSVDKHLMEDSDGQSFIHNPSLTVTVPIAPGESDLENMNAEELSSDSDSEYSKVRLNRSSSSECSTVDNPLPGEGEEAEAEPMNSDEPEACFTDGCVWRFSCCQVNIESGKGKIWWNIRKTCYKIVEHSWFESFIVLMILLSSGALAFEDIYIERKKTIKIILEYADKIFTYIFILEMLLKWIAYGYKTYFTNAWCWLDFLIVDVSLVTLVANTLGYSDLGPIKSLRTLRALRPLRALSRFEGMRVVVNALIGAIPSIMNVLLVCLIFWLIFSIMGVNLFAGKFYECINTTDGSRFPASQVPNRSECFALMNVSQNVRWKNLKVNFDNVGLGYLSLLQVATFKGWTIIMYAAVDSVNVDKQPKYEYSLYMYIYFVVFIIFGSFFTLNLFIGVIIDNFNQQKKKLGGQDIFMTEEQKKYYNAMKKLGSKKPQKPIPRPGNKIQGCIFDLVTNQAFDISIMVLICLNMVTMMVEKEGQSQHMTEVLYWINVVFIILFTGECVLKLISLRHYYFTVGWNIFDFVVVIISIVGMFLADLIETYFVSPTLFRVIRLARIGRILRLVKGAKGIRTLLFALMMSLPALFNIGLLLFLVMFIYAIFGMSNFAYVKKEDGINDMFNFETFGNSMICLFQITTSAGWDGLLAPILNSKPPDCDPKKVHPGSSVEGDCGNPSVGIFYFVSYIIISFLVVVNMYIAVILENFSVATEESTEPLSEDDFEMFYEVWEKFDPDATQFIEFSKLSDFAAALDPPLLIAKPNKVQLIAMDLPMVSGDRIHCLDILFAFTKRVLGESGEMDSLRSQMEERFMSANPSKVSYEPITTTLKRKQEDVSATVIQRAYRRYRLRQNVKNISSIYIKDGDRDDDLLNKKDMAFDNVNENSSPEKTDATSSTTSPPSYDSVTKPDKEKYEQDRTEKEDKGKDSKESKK
Target sequence in this assay (Q07699 whole entry partner, looked up): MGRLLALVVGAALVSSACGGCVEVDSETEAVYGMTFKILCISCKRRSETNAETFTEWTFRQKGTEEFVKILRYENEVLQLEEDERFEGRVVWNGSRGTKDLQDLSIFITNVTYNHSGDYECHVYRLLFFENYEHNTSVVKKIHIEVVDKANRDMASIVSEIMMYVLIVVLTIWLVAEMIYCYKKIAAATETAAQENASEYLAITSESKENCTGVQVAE

hNav1.7 [2] = target: T1, hNav1.7; assay: Patch voltage clamp electrophysiology assay (EP), Syncropatch 384PE, CHO cells expressing Nav1.7; assay type: cell-based; conditions: read-out: EP_SP hNav1.7 (Ex. 243B) IC50
Procedure, shortened: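 Automated whole-cell patch clamp on CHO cells stably expressing human Nav1.7, CsCl/EGTA internal and NMDG/80 mM Na+ external (pH 7.4). From −50 mV holding, −10 mV step, 20 ms recovery at −150 mV, then second −10 mV pulse where block is measured; inhibition after 7.5 min compound incubation.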
Target sequence in this assay (Q15858 other isoform, or with tags, fused parts or gaps): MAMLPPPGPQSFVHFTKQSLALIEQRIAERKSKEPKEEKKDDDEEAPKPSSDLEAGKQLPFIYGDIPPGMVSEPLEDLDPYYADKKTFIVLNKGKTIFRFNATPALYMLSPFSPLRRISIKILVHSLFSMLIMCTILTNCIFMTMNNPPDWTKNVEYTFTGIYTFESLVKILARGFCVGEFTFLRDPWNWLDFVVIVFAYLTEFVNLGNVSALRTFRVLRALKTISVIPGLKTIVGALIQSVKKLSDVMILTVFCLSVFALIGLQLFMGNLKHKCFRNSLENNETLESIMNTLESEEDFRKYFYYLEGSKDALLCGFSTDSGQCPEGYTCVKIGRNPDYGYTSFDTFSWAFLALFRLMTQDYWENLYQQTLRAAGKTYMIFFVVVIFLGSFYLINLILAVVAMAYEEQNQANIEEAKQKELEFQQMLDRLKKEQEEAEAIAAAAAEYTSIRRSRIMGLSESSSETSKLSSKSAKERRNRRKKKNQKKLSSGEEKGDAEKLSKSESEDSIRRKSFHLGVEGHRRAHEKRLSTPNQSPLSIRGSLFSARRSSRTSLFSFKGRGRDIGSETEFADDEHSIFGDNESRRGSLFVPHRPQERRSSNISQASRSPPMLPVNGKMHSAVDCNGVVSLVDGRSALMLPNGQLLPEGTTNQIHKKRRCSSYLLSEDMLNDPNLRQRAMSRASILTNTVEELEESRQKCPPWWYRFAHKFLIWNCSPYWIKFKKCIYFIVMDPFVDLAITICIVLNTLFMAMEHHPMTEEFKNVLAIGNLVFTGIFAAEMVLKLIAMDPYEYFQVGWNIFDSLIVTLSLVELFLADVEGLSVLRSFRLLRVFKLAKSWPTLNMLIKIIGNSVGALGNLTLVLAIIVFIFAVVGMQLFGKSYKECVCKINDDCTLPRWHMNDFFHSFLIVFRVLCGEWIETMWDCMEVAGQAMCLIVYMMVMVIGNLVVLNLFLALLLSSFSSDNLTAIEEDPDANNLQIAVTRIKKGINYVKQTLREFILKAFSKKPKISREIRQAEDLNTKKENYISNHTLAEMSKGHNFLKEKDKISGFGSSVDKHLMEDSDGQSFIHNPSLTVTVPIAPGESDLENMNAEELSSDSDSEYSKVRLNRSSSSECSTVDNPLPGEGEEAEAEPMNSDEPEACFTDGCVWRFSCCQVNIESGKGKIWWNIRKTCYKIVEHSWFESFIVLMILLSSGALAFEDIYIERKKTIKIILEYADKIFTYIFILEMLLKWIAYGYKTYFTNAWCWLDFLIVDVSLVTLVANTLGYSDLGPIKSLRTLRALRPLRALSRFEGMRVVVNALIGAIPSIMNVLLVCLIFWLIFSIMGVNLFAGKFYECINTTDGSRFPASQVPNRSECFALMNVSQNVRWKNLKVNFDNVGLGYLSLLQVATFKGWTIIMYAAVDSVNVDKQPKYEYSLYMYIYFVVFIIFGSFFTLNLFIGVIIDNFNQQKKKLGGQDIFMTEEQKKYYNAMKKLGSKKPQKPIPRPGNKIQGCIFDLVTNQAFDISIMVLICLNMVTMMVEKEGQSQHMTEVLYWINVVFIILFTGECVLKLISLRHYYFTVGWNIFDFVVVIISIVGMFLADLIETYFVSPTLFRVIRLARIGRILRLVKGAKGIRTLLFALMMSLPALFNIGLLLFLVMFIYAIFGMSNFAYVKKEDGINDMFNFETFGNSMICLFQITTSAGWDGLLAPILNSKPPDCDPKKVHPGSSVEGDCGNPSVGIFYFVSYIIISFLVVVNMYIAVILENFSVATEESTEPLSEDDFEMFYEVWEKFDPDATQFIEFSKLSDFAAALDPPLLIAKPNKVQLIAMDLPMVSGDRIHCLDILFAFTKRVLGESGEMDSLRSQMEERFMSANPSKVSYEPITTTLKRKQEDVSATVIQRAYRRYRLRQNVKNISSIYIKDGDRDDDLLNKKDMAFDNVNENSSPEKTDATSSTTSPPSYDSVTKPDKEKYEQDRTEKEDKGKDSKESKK

[3] = holding potential -50 mV, […] compound incubation

SMILES	IC50 (hNav1.7 [1]) [nM]	IC50 (hNav1.7 [2]; [3]) [nM]	IC50 (hNav1.7 [2]) [nM]
CN1CCN([C@H]2CCCC[C@@H]2Nc2cc(F)c(S(=O)(=O)Nc3nccs3)cc2Cl)CC1 [Example 163, 5-Chloro-2-fluoro-4-(((1S,2S)-2-(4-methylpiperazin-1-yl)cyclohexyl)amino)-N-(thiazol-2-yl)benzenesulfonamide]	201	18.1	
COc1cc(S(=O)(=O)Nc2ccncn2)c(F)cc1N[C@H]1CC[C@H](c2cccc(C(F)(F)F)c2)C[C@@H]1N(C)C [Example 241, 4-(((1S,2S,4S)-2-(Dimethylamino)-4-(3-(trifluoromethyl)phenyl)cyclohexyl)amino)-2-fluoro-5-methoxy-N-(pyrimidin-4-yl)benzenesulfonamide formate]	3.73	1.48	
CN(CCO)[C@H]1CCCC[C@@H]1Nc1cc(F)c(S(=O)(=O)Nc2cccc(F)n2)cc1C1CC1 [Example 128, 5-Cyclopropyl-2-fluoro-N-(6-fluoropyridin-2-yl)-4-(((1S,2S)-2-((2-hydroxyethyl)(methyl)amino)cyclohexyl)amino)benzenesulfonamide formate]	22.8	9.56	
O=S(=O)(Nc1cccc(F)n1)c1cc(Cl)c(N[C@@H]2CCCC[C@H]2N2CC3CC3C2)cc1F (stereo partly drawn) [Example 106, 4-(((1R,2R)-2-(3-azabicyclo[3.1.0]hexan-3-yl)cyclohexyl)amino)-5-chloro-2-fluoro-N-(6-fluoropyridin-2-yl)benzenesulfonamide]	670	74.9	
O=S(=O)(Nc1ccncn1)c1cc(Cl)c(N[C@H]2CCCC[C@@H]2N2CCCCC2)cc1F [Example 108, 5-chloro-2-fluoro-4-(((1S,2S)-2-(piperidin-1-yl)cyclohexyl)amino)-N-(pyrimidin-4-yl)benzenesulfonamide]	166	22.6	
O=S(=O)(Nc1nccs1)c1cc(Cl)c(N[C@H]2CCCC[C@@H]2N2CCC[C@H]2CO)cc1F [Example 134, 5-chloro-2-fluoro-4-(((1S,2S)-2-((S)-2-(hydroxymethyl)pyrrolidin-1-yl)cyclohexyl)amino)-N-(thiazol-2-yl)benzenesulfonamide]	279	18.6	
O=S(=O)(Nc1nccs1)c1cc(Cl)c(N[C@@H]2CCCC[C@H]2N2CC3CC3C2)cc1F (stereo partly drawn) [Example 159, 4-(((1R,2R)-2-(3-azabicyclo[3.1.0]hexan-3-yl)cyclohexyl)amino)-5-chloro-2-fluoro-N-(thiazol-2-yl)benzenesulfonamide]	1790		202
O=S(=O)(Nc1nccs1)c1cc(Cl)c(N[C@H]2CCCC[C@@H]2N2CCC(O)CC2)cc1F [Example 131, 5-chloro-2-fluoro-4-(((1 S,2S)-2-(4-hydroxypiperidin-1-yl)cyclohexyl)amino)-N-(thiazol-2-yl)benzenesulfonamide]	201	5.95	
CN(C)[C@@H]1C[C@@H]2[C@H](C[C@H]1Nc1cc(F)c(S(=O)(=O)Nc3nccs3)cc1Cl)C2(Cl)Cl [Example 195, 5-Chloro-4-(((1S,3R,4R,6R)-7,7-dichloro-4-(dimethylamino)bicyclo[4.1.0]heptan-3-yl)amino)-2-fluoro-N-(thiazol-2-yl)benzenesulfonamide formate]	8.11	1.4	
CN(C)[C@H]1C[C@@H](c2cccc(C(F)(F)F)c2)CC[C@@H]1Nc1cc(F)c(S(=O)(=O)Nc2ccncn2)cc1Cl [Example 181, 5-chloro-4-[[(1S,2S,4S)-2-(dimethylamino)-4-[3-(trifluoromethyl)phenyl]cyclohexyl]amino]-2-fluoro-N-pyrimidin-4-yl-benzenesulfonamide]	1.31	0.783	
